The text below walks through data of US20040171566A1, “Antisense modulation of p38 mitogen activated protein kinase expression” (priority 1999, published 2004).

What all share (type): cell-based
One data set deals with rat p38α mRNA. Description: Rat p38α mRNA levels in NR-8383 cells, quantitative real-time PCR. Particulars: 300 nM oligonucleotide with FuGENE 6, 24 hours, mRNA by quantitative real-time PCR, average of two experiments.
The next data set deals with mouse p38α mRNA. Description: Mouse p38α mRNA levels in bEND.3 cells, quantitative real-time PCR. Particulars: bEND.3 cells, mRNA by quantitative real-time PCR, average of two experiments. On the set-up: % Inhib. mouse p38α: concentration or dose not given beside the values. In outline:
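Mouse bEND.3 cells, antisense oligonucleotide-treated; p38α mRNA measured by one-step real-time RT-PCR (RT 30 min at 48 °C, then 40 cycles) with a FAM/TAMRA probe. Levels normalized to GAPDH or RiboGreen total RNA, and percent inhibition derived from standard curves of untreated-control mRNA.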

A further data set has as its system human p38α mRNA. Description: Inhibition of human p38α mRNA expression in Jurkat cells, Northern blot. On the procedure:
(§1) The human Jurkat T-cell line (American Type Culture Collection, Manassas, Va.) was maintained in RPMI 1640 growth media supplemented with 10% fetal bovine serum (FBS; Hyclone, Logan, Utah). HUVEC cells (Clonetics, San Diego, Calif.) were cultivated in endothelial basal media supplemented with 10% FBS (Hyclone, Logan, Utah).
Jurkat cells were grown to approximately 75% confluency and resuspended in culture media at a density of 1×10^7 cells/ml. A total of 3.6×10^6 cells were employed for each treatment by combining 360 μl of cell suspension with oligonucleotide at the indicated concentrations to reach a final volume of 400 μl. Cells were then transferred to an electroporation cuvette and electroporated using an Electrocell Manipulator 600 instrument (Biotechnologies and Experimental Research, Inc.) employing 150 V, 1000 μF, at 13 Ω. Electroporated cells were then transferred to conical tubes containing 5 ml of culture media, mixed by inversion, and plated onto 10 cm culture dishes.
(§2) Total mRNA was isolated using the RNEASY7 Mini Kit (Qiagen, Valencia, Calif.; similar kits from other manufacturers may also be used), separated on a 1% agarose gel, transferred to HYBOND™-N+ membrane (Amersham Pharmacia Biotech, Piscataway, N.J.), a positively charged nylon membrane, and probed. p38 MAPK probes were made using the Prime-A-Gene7 kit (Promega Corporation, Madison, Wis.), a random primer labeling kit, using mouse p38α or p38β cDNA as a template. A glyceraldehyde 3-phosphate dehydrogenase (G3PDH) probe was purchased from Clontech (Palo Alto, Calif.), Catalog Number 9805-1. The fragments were purified from low-melting temperature agarose, as described in Maniatis, T., et al., Molecular Cloning: A Laboratory Manual, 1989. The G3PDH probe was labeled with REDIVUE™ ^32P-dCTP (Amersham Pharmacia Biotech, Piscataway, N.J.) and Strip-EZ labelling kit (Ambion, Austin, Tex.). mRNA was quantitated by a PhosphoImager (Molecular Dynamics, Sunnyvale, Calif.).
Jurkat cells were grown and treated as described above except the concentration of oligonucleotide was varied as indicated in Table 3. […] Maximum inhibition was approximately 70% with 16500 (SEQ ID NO 17).

In the next data set the test system is human p38β mRNA. Description: Inhibition of human p38β mRNA expression in HUVEC cells, Northern blot. On the procedure: as §1
HUVEC cells were allowed to reach 75% confluency prior to use. The cells were washed twice with warm (37° C.) OPTI-MEM™ (Life Technologies). The cells were incubated in the presence of the appropriate culture medium, without the growth factors added, and the oligonucleotide formulated in LIPOFECTIN7 (Life Technologies), a 1:1 (w/w) liposome formulation of the cationic lipid N-[1-(2,3-dioleyloxy)propyl]-n,n,n-trimethylammonium chloride (DOTMA), and dioleoyl phosphotidylethanolamine (DOPE) in membrane filtered water. HUVEC cells were treated with 100 nM oligonucleotide in 10 μg/ml LIPOFECTIN7. Treatment was for four hours.
as §2
Every oligonucleotide tested gave at least 50% inhibition.
Oligonucleotides 17893 (SEQ ID NO. 27), 17899 (SEQ ID NO:33), 17904 (SEQ ID NO. 38), and 17907 (SEQ ID NO. 41) were chosen for dose response studies. HUVEC cells were cultured and treated as described in Example 2 except that the oligonucleotide concentration was varied as shown in Table 6. The Lipofectin7/Oligo ratio was maintained at 3 μg Lipofectin7/100 nM oligo, per ml. mRNA was measured by Northern blot as described in Example 2.

The mark [1] stands for this setting: Jurkat cells electroporated with 10 μM oligonucleotide, Northern blot.
[2] abbreviates: 100 nM oligonucleotide in 10 μg/ml LIPOFECTIN, four hours, Northern blot.

In the oligonucleotide strings, read from the 5' end, every base follows the letter of its sugar. An asterisk marks phosphorothioate; unmarked linkages are phosphodiester. Other units and linkages are bracketed, terminal groups are in braces. A string of capitals states the bases alone. e = 2'-O-(2-methoxyethyl) (MOE); [5mC] = 5-methylcytosine; d = 2'-deoxy (DNA)

Consider “320174 (antisense CCCGCTTGGGCTCCAGTGGC; sugars from the 5' end e5 d10 e5, all phosphorothioate, methylation of C not given here) [compound 320174]”, for which the “% Inhib. rat p38α” value in the data set with rat p38α mRNA was determined as 29%. In addition, in the data set with mouse p38α mRNA, the “% Inhib. mouse p38α” value stood at 62%.
As for “AACCAGGTGCTCAGGACTCC (antisense eA*eA*e[5mC]*e[5mC]*eA*eG*dG*dT*dG*dC*dT*dC*dA*dG*eG*eA*e[5mC]*eT*e[5mC]*e[5mC]) [ISIS 16500]”, the “% mRNA EXPRESSION” value is reported as 63% with human p38α mRNA (setting [1]); 82% with human p38α mRNA (Jurkat cells, dose 2.5 nM); 71% with human p38α mRNA (Jurkat cells, dose 5 nM); 49% in the data set on human p38α mRNA (Jurkat cells, dose 10 nM); 31% in the data set with human p38α mRNA (Jurkat cells, dose 20 nM). The “% mRNA Inhibition” value in the data set on human p38α mRNA (Jurkat cells, dose 2.5 nM) is reported as 18%; in the data set with human p38α mRNA (Jurkat cells, dose 5 nM), 29%; in the data set with human p38α mRNA (Jurkat cells, dose 10 nM), 51%; in the data set on human p38α mRNA (Jurkat cells, dose 20 nM), 69%. In the data set on human p38α mRNA (Jurkat cells, dose response), the “Maximum inhibition of p38α mRNA” value is “approximately 70%”.
In the case of “AACGCTCTCATCATATGGCT (chemistry not fully specified) [ISIS 17903]”, in the data set on human p38β mRNA (setting [2]), the “% mRNA EXPRESSION” value came to 11% and the “% mRNA Inhibition” value is 89%.
As to “AACGTGCTCGTCAAGTGCCA (chemistry not fully specified) [ISIS 17898]”, in the data set with human p38β mRNA (setting [2]), the “% mRNA EXPRESSION” value is recorded as 49% and the “% mRNA Inhibition” value is recorded as 51%.
Regarding “AAGACCGGGCCCGGAATTCC (antisense eA*eA*eG*eA*e[5mC]*e[5mC]*dG*dG*dG*dC*dC*dC*dG*dG*eA*eA*eT*eT*e[5mC]*e[5mC]) [ISIS 16486]”, in the data set on human p38α mRNA (setting [1]), the “% mRNA EXPRESSION” value is recorded as 212%.
Turning to “ACACATGCACACACACTAAC (antisense eA*e[5mC]*eA*e[5mC]*eA*eT*dG*dC*dA*dC*dA*dC*dA*dC*eA*e[5mC]*eT*eA*eA*e[5mC]) [ISIS 16505]”, in the data set with human p38α mRNA (setting [1]), the “% mRNA EXPRESSION” value is reported as 93% and the “% mRNA Inhibition” value turned out to be 7%.
With “ACACATGTTTGTGCATGCAT (antisense; chemistry not fully specified) [ISIS 17906]”, in the data set on human p38β mRNA (setting [2]), the “% mRNA EXPRESSION” value is 22% and the “% mRNA Inhibition” value is recorded as 78%.
Taken in the same sequence, the figures for “ACTGTTTGGTTGTAATGCAT (antisense; chemistry not fully specified) [ISIS 17900]” were 40% and 60%.
Taken in the same sequence, the figures for “ACTTGACGATGTTGTTCAGG (antisense; chemistry not fully specified) [ISIS 17897]” were 25% and 75%.
In the case of “AGGCACTTGAATAATATTTG (eA*eG*eG*e[5mC]*eA*e[5mC]*dT*dT*dG*dA*dA*dT*dA*dA*eT*eA*eT*eT*eT*eG; antisense) [ISIS 16503]”, the “% mRNA EXPRESSION” value is listed as 65% with human p38α mRNA (setting [1]); 74% in the data set on human p38α mRNA (Jurkat cells, dose 2.5 nM); 61% with human p38α mRNA (Jurkat cells, dose 5 nM); 53% with human p38α mRNA (Jurkat cells, dose 10 nM); 41% in the data set on human p38α mRNA (Jurkat cells, dose 20 nM). Moreover, the “% mRNA Inhibition” value with human p38α mRNA (Jurkat cells, dose 2.5 nM) was 26%; in the data set on human p38α mRNA (Jurkat cells, dose 5 nM), 39%; in the data set on human p38α mRNA (Jurkat cells, dose 10 nM) it was 47%; in the data set on human p38α mRNA (Jurkat cells, dose 20 nM) it was 59%.
As for “AGTGCACGCTCATCCACACG (chemistry not fully specified) [ISIS 17909]”, in the data set with human p38β mRNA (setting [2]), the “% mRNA EXPRESSION” value came to 13% and the “% mRNA Inhibition” value worked out at 87%.
The corresponding values for “ATGATGCGCTTCAGCTGGTC (chemistry not fully specified) [ISIS 17901]” are 15% and 85%.
On to “ATGTTCTTCCAGTCAACAGC (antisense eA*eT*eG*eT*eT*e[5mC]*dT*dT*dC*dC*dA*dG*dT*dC*eA*eA*e[5mC]*eA*eG*e[5mC]) [ISIS 16498]”, for which, in the data set on human p38α mRNA (setting [1]), the “% mRNA EXPRESSION” value turned out to be 88% and the “% mRNA Inhibition” value was 12%.
Consider “CAGAGAGCCTCCTGGGAGGG (antisense e[5mC]*eA*eG*eA*eG*eA*dG*dC*dC*dT*dC*dC*dT*dG*eG*eG*eA*eG*eG*eG) [ISIS 16489]”, for which the “% mRNA EXPRESSION” value in the data set with human p38α mRNA (setting [1]) is given as 149%.
As for “CAGCACCTCACTGCTCAATC (chemistry not fully specified) [ISIS 17904]”, the “% mRNA EXPRESSION” value came to 9% in the data set on human p38β mRNA (setting [2]); 31% in the data set on human p38β mRNA (dose 10 nM); 21% with human p38β mRNA (dose 25 nM); 17% in the data set on human p38β mRNA (dose 50 nM); 19% with human p38β mRNA (dose 100 nM). The “% mRNA Inhibition” value in the data set with human p38β mRNA (setting [2]) stood at 91%; with human p38β mRNA (dose 10 nM) it was 69%; with human p38β mRNA (dose 25 nM), 79%; with human p38β mRNA (dose 50 nM), 83%; with human p38β mRNA (dose 100 nM), 81%.
“CAGCCGCGGGACCAGCGGCG (antisense e[5mC]*eA*eG*e[5mC]*e[5mC]*eG*dC*dG*dG*dG*dA*dC*dC*dA*eG*e[5mC]*eG*eG*e[5mC]*eG) [ISIS 16492]”: the “% mRNA EXPRESSION” value in the data set on human p38α mRNA (setting [1]) was found to be 125%.
Same read-out and setting: the value for “CATTTTCCAGCGGCAGCCGC (antisense e[5mC]*eA*eT*eT*eT*eT*dC*dC*dA*dG*dC*dG*dG*dC*eA*eG*e[5mC]*e[5mC]*eG*e[5mC]) [ISIS 16493]” was 101%.
For the substance “CCGAACAGACGGAGCCGTAT (chemistry not fully specified) [ISIS 17894]”, in the data set with human p38β mRNA (setting [2]), the “% mRNA EXPRESSION” value is reported as 13% and the “% mRNA Inhibition” value was 87%.
Regarding “CCTACACATGGCAAGCACAT (chemistry not fully specified) [ISIS 17907]”, the “% mRNA EXPRESSION” value is recorded as 8% in the data set with human p38β mRNA (setting [2]); 37% in the data set on human p38β mRNA (dose 10 nM); 22% in the data set on human p38β mRNA (dose 25 nM); 18% in the data set on human p38β mRNA (dose 50 nM); 18% with human p38β mRNA (dose 100 nM). Besides, the “% mRNA Inhibition” value in the data set on human p38β mRNA (setting [2]) turned out to be 92%; in the data set with human p38β mRNA (dose 10 nM), 63%; in the data set with human p38β mRNA (dose 25 nM), 78%; in the data set with human p38β mRNA (dose 50 nM), 72%; in the data set on human p38β mRNA (dose 100 nM), 72%.
Turning to “CGACATGTCCGGAGCAGAAT (chemistry not fully specified) [ISIS 17891]”, in the data set on human p38β mRNA (setting [2]), the “% mRNA EXPRESSION” value is listed as 22% and the “% mRNA Inhibition” value came to 78%.
Turning to “CTTGCCAGATATGGCTGCTG (chemistry not fully specified) [ISIS 17910]”, in the data set with human p38β mRNA (setting [2]), the “% mRNA EXPRESSION” value worked out at 26% and the “% mRNA Inhibition” value was 74%.
Taken in the same sequence, the figures for GCCAGTGCCTCAGGTGCACT [ISIS 17902] were 49% and 51%.
On to “GCGTGAAGACGTCCAGAAGC (chemistry not fully specified) [ISIS 17896]”, for which, in the data set on human p38β mRNA (setting [2]), the “% mRNA EXPRESSION” value turned out to be 24% and the “% mRNA Inhibition” value was 76%.
In the case of “GTGCTTCAGGTGCTTGAGCA (chemistry not fully specified) [ISIS 17895]”, in the data set with human p38β mRNA (setting [2]), the “% mRNA EXPRESSION” value was 25% and the “% mRNA Inhibition” value is given as 75%.
The corresponding values for “TCCAGGCTGAGCAGCTCTAA (chemistry not fully specified) [ISIS 17908]” are 17% and 83%.
The corresponding values for “TCTGTGACCATAGGAGTGTG (antisense; chemistry not fully specified) [ISIS 17905]” are 14% and 86%.
Taken in the same sequence, the figures for “TTCAGCTCCTGCCGGTAGAA (chemistry not fully specified) [ISIS 17892]” were 10% and 90%.
